Laboratory results: ChEMBL document CHEMBL3872220, “Amphiphilic xanthones as a potent chemical entity of anti-mycobacterial agents with membrane-targeting properties” (Eur J Med Chem, 2016)
Values after ≈ are worked out from the molar mass of the structure shown.

Legend:
Format in all cases: functional
[1] = test system: Mycobacterium tuberculosis; experiment: Antimycobacterial activity against rifampicin, streptomycin and ethambutol resistant Mycobacterium tuberculosis clinical isolate 01;005 assessed as reduction in 2 log10 bacterial colonies measured after 14 to 21 days by agar dilution method
[2] = test system: Mycobacterium tuberculosis; experiment: Antimycobacterial activity against isoniazid, streptomycin and ethambutol resistant Mycobacterium tuberculosis clinical isolate 01;104 assessed as reduction in 2 log10 bacterial colonies measured after 14 to 21 days by agar dilution method
[3] = test system: Mycobacterium tuberculosis variant bovis BCG; experiment: Bactericidal activity against Mycobacterium bovis BCG ATCC 35734 assessed as log reduction in bacterial colonies at 2 times MIC measured at 9 hrs by time-kill assay

Row | SMILES | MIC [1] [µg/mL] | MIC [2] [µg/mL] | Activity [3]
1 | CCN(CC)CCCCOc1cc2oc3cc(OCCCCN(CC)CC)c(OC)c(CC=C(C)C)c3c(=O)c2c(O)c1CC=C(C)C | 8 (≈ 12 µM) | 4 (≈ 6.02 µM) | –
2 | COc1c(OCCCCN2CCOCC2)cc2oc3cc(OCCCCN4CCOCC4)c(CC=C(C)C)c(O)c3c(=O)c2c1CC=C(C)C | 8 (≈ 11.5 µM) | 4 (≈ 5.77 µM) | –
3 | CCCN(CCC)CCCCOc1cc2oc3cc(OCCCCN(CCC)CCC)c(OC)c(CC=C(C)C)c3c(=O)c2c(O)c1CC=C(C)C | – | – | 2.8
